The values that follow come from patent US20230277669A1, “USES OF UROLITHINS” (Amazentis SA, priority 2022, published 2023).

The test system of series [1] is APTK-s.c. tumors. Kind of series: Oral UA in mice with established s.c. APTK tumors. The format is in vivo, C57BL/6 mice. An excerpt:
Oral UA confers anti-tumor effects in murine colorectal cancer in a T-cell dependent manner. (FIG. 1A) Schematic representation of AOM model and different UA containing diets. (FIG. 1B) Representative images of swiss-roll sections from AOM-induced colon tumors. Scale bars are 2 mm (upper row) and 300 µm (lower row), respectively. (FIG. 1C) Tumor incidence of AOM-induced tumors receiving different UA-containing diets; n=4/5/5. Data are mean ±SD, depicting one of two independent experiments. *p < 0.05 by two-sided t-test. (FIG. 1D) Average lesion size of AOM-induced tumors receiving different UA-containing diets; n=4/5/5. Data are mean ±SD, depicting one of two independent experiments. *p < 0.05 by two-sided t-test. (FIG. 1E) Relative number of CD45^+CD3^+ T cells in colons of AOM-treated mice at week 24 (n>7, pooled from two independent experiments). Data are mean ± SD, **p < 0.01 by two-sided t-test. (FIG. 1F) Organoid treatment scheme. APTK-organoids were incubated in the presence of UA or DMSO for the indicated time points, prior to flow cytometric analysis. (FIG. 1G) Quantification of lysosome formation as assessed by lysotracker MFI via flow cytometry after 24 h incubation at the presence of various UA concentrations (n=5/4/4). Depicts one out of two indepdent experiments. Data are mean ± SD, *p < 0.05; **p < 0.01 as established via two-sided t-test. (FIG. 1H) Mitotracker signal of APTK organoids incubated for 24 h at the presence of UA in vitro (n=4/4/4) and antigen presentation via MHC-I molecules (I) after 48 h of treatment (n=4/4/4). Results from one out of two independent experiments are shown. Data are mean ± SD, statistical analysis was performed via two-sided t-test, *p < 0.05; **p < 0.01, ****p < 0.0001. (FIG. 1I) Upregulation of MHC-I by UA. (FIG. 1J) Experimental setup of oral UA administration in mice with established APTK-s.c. tumors. Treatment diet was initiated eleven days after tumor injection and maintained until the end of the experiment. (FIG. 1K) Growth curve of mice subcutaneously transplanted with APTK tumors, receiving either UA-containing or control food (n=7 per group). Data are mean ± SD, ***p <0.001 by two-sided t-test. One out of two independent experiments are shown. (FIG. 1L) End point tumor weight, (FIG. 1M) CD8+ T cell infiltration in APTK-s.c. tumors assessed by flow cytometry, normalising total number of CD8^+ T cells to tumor weight (n=7 per group). Data are mean ± SD, statistical analysis was performed via Mann-Whitney test, *p < 0.05 and ***p <0.001. (FIG. 1N) Size of subcutaneous APTK tumors in Rag1^-/- mice receiving UA-containing or control food (n=7 per group). Treatment was initiated as depicted in FIG. 1J. Data are mean +-SD, depicting one out of two independent experiments. […]

Series [2] concerns T cells. Kind of series: RNA sequencing of T cells exposed to DMSO or UA. The format is cell-based. To be noted: 48 hours. Here is the method: (FIG. 5B) RNAseq expression heatmap of selected genes: Genes associated with immune checkpoints, effector molecules and genes encoding for leukocyte migration. (FIG. 5C) Expression of genes associated with T cell memory vs effector fate decisions. Data underwent z-score normalization for display (n=3 per group). […] T cells were stimulated for 48 h in vitro at the presence of the indicated treatments. Data are mean ± SD (n=4/4/3), statistical analysis was performed by two-sided t-test (p***<0.01; p****0.0001). (FIG. 5E) Quantification of TSCM formation within CD8+ cells after 48 h of in vitro stimulation under various treatment conditions, including TCF1 inhibition by ICG001 (DMSO, UA, TCF1i n=4; TCFi+UA n=3). Data are mean ± SD, statistical analysis was performed by two-sided t-test (*p < 0.05; n.s. not significant). One of two independent experiments are shown. (FIG. 5F) Western blot analysis of β-Catenin phosphorylation status in CD3+ cells stimulated via plate-bound aCD3/aCD28 antibodies for 6h. N=3 per group. (FIG. 5G) Cytosolic fractionation of CD3+ cells stimulated for six hours in the presence of Urolithin or DMSO control (c= cytosolic, m = mitochondrial fraction). Experiment was repeated twice.
(FIG. 8A) Ingenuity pathway upstream regulator analysis of UA treated T cells. Assessed from RNAseq data. Plausible upregulation is depicted by z score, significance is shown on the overlying dot spot. Genes with a log2 fold change of 1 and p<0.05 were initially considered.
To explore the downstream events linking mitophagy to TSCM formation, we performed RNA sequencing to globally assess differential gene expression in T cells exposed for 48 hours to either DMSO or UA in vitro. […] Indeed, when we applied ICG001 to pharmacologically block TCF-1, UA-induced TSCM formation in vitro was abrogated (FIGS. 5D-E).

Series [3] has as its system CD19-CAR T cells. As to the kind of experiment: CD19-CAR T cell generation in presence of UA. The format is cell-based, human.
The test system of series [4] is CAR-T cells specific for carcinoembryonic antigen (CEA). Kind of series: UA applied to previously frozen CEA-specific CAR-T cells. The format is cell-based, human.
The conditions of series [5]: commercially-available supplements containing urolithin A; cited from earlier work.
Series [6] concerns FoxP3+ T-regulatory cells. To be noted: cited from earlier work.

Turning to `O=c1oc2cc(O)ccc2c2ccc(O)cc12` [Urolithin A], in series [1] (CD8+ T cell depleting antibodies, UA-containing or control food), the tumor growth result was “exacerbated tumor growth in both control and UA-fed cohorts”. Also, the tumor growth result in series [1] (UA-containing food plus a-PD1) is “sensitized APTK tumors to PD-1 blockade”. Further, in series [1] (high-dose UA diet (2.28 g/kg)), the “CD8+ T cell infiltration” value was “enhanced CD8^+ T cell infiltration”. In addition, in series [1] (high-dose UA diet (2.28 g/kg), started eleven days after tumor injection), the tumor growth entry is recorded as “significantly reduced tumor growth”. Moreover, in series [2], the “effector fate associated genes Prdm1 and Id2” value is given as “reduced expression”; the “expression of Cd27, Ccr7 and adhesion genes” value is listed as “enhancing expression”; the “expression of genes coding for immune checkpoints and effector molecules” value is given as “reduced the expression”; the “genes involved in memory formation (Tcf7, Bach2, Bcl6)” value is listed as “special enrichment”. Also, the “gene delivery into CD8+ cells” value in series [3] is “did not impair gene delivery”. Moreover, the markers of exhaustion result in series [3] (UA supplementation) was “not affected”. Also, the “CAR expressing TSCM cells among CD8+ cells” value in series [3] (three days post transduction, upon UA exposure) is given as “about 60%”. In addition, the “CAR TSCM formation” value in series [4] is “strongly enhanced CAR TSCM formation”. In addition, in series [5], the bioavailability profile entry was “favourable bioavailability profile” and the safety entry is on record as “deemed safe”. The “FoxP3+ T-regulatory cells” value in series [6] was “expanding FoxP3+ T-regulatory cells”.
